Laboratory results taken from ChEMBL document CHEMBL4385653, “Design, synthesis, biological evaluation of benzoyl amide derivatives containing nitrogen heterocyclic ring as potential VEGFR-2 inhibitors” (Bioorg Med Chem, 2019).
pIC50: −log10 of the molar value.

How the values were obtained:
[1] = biological target: Fibroblast growth factor receptor 1 (Homo sapiens, UniProt P11362); test: Inhibition of bFGFR (unknown origin) incubated for 30 mins by enzyme immunoassay
HepG2 = test: Antiproliferative activity against human HepG2 cells assessed as inhibition of cell proliferation incubated for 48 hrs by MTT assay; assay type: functional, cell-based; details: HepG2, 48 h
[2] = biological target: Vascular endothelial growth factor receptor 2 (Homo sapiens, UniProt P35968); test: Inhibition of VEGFR2 (unknown origin) incubated for 30 mins by enzyme immunoassay
[3] = biological target: Epidermal growth factor receptor (Homo sapiens, UniProt P00533); test: Inhibition of EGFR (unknown origin) incubated for 30 mins by enzyme immunoassay
MCF7 [4] = test: Antiproliferative activity against human MCF7 cells assessed as inhibition of cell proliferation incubated for 48 hrs by MTT assay; assay type: functional, cell-based; details: MCF7, 48 h
A549 = test: Antiproliferative activity against human A549 cells assessed as inhibition of cell proliferation incubated for 48 hrs by MTT assay; assay type: functional, cell-based; details: A549, 48 h
[5] = Inhibition of PDGFR (unknown origin) incubated for 30 mins by enzyme immunoassay; design: species or system Homo sapiens
HeLa = test: Antiproliferative activity against human HeLa cells assessed as inhibition of cell proliferation incubated for 48 hrs by MTT assay; assay type: functional, cell-based
[6] = Cytotoxicity in HEK293T cells assessed as reduction in cell viability incubated for 48 hrs by MTT assay; assay type: cell-based, HEK-293T; details: human
MCF7 [7] = test: Induction of apoptosis in human MCF7 cells incubated for 24 hrs by Annexin V-FITC/PI double staining based flow cytometry analysis; assay type: functional, cell-based

Sequence of Vascular endothelial growth factor receptor 2 (P35968 whole entry): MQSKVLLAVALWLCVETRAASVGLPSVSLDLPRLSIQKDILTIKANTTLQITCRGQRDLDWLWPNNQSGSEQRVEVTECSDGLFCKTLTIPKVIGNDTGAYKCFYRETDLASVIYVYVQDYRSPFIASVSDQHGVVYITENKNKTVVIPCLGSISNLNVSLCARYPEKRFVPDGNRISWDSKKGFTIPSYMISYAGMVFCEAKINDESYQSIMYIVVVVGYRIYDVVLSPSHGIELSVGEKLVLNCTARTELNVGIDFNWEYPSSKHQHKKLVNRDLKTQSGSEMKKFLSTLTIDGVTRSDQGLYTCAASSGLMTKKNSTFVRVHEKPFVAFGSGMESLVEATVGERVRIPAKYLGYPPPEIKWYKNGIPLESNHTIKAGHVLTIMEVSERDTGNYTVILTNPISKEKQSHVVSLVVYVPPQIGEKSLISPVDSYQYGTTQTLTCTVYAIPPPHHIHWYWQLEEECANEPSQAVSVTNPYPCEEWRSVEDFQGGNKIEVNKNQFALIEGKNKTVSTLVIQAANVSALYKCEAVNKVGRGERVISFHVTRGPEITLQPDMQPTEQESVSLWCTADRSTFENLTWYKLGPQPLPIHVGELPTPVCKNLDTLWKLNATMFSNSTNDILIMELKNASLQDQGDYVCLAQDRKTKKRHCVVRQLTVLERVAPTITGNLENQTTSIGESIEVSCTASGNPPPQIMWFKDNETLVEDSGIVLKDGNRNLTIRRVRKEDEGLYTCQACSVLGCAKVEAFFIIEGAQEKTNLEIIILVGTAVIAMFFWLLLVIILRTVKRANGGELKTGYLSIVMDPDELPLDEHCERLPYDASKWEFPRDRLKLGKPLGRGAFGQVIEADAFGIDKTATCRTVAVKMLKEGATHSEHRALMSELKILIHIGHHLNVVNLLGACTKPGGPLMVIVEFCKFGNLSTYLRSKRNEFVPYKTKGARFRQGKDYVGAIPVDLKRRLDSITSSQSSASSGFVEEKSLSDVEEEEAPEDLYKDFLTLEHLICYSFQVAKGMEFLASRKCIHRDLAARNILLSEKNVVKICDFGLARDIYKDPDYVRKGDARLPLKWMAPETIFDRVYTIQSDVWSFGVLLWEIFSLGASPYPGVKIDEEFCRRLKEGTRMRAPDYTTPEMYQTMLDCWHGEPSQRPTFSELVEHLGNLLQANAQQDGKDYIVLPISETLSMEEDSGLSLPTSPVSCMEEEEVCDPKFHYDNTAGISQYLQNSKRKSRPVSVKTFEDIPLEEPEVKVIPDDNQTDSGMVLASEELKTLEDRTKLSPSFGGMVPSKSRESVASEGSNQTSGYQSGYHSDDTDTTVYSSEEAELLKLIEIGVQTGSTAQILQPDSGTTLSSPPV
Sequence of Fibroblast growth factor receptor 1 (P11362 whole entry): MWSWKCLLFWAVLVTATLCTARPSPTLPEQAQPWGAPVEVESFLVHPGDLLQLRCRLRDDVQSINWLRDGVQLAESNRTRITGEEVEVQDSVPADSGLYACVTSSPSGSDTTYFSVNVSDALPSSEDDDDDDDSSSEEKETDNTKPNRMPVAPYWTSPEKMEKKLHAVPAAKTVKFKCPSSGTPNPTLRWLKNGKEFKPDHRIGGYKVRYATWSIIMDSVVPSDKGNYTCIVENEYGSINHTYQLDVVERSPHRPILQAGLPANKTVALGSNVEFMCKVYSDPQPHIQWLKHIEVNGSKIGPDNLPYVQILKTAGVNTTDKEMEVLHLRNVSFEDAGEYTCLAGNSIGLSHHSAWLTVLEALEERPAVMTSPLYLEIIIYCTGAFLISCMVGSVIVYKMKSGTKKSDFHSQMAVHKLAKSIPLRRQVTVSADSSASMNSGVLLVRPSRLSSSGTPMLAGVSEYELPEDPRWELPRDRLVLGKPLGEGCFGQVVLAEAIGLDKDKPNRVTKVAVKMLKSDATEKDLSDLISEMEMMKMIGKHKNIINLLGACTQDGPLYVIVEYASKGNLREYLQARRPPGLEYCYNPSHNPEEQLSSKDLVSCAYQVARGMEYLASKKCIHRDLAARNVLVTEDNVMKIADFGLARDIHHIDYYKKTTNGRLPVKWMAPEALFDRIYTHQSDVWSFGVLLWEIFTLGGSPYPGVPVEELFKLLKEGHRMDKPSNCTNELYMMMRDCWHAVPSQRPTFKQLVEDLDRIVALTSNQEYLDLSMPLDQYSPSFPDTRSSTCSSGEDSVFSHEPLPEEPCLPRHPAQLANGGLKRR
Sequence of Epidermal growth factor receptor (P00533 whole entry): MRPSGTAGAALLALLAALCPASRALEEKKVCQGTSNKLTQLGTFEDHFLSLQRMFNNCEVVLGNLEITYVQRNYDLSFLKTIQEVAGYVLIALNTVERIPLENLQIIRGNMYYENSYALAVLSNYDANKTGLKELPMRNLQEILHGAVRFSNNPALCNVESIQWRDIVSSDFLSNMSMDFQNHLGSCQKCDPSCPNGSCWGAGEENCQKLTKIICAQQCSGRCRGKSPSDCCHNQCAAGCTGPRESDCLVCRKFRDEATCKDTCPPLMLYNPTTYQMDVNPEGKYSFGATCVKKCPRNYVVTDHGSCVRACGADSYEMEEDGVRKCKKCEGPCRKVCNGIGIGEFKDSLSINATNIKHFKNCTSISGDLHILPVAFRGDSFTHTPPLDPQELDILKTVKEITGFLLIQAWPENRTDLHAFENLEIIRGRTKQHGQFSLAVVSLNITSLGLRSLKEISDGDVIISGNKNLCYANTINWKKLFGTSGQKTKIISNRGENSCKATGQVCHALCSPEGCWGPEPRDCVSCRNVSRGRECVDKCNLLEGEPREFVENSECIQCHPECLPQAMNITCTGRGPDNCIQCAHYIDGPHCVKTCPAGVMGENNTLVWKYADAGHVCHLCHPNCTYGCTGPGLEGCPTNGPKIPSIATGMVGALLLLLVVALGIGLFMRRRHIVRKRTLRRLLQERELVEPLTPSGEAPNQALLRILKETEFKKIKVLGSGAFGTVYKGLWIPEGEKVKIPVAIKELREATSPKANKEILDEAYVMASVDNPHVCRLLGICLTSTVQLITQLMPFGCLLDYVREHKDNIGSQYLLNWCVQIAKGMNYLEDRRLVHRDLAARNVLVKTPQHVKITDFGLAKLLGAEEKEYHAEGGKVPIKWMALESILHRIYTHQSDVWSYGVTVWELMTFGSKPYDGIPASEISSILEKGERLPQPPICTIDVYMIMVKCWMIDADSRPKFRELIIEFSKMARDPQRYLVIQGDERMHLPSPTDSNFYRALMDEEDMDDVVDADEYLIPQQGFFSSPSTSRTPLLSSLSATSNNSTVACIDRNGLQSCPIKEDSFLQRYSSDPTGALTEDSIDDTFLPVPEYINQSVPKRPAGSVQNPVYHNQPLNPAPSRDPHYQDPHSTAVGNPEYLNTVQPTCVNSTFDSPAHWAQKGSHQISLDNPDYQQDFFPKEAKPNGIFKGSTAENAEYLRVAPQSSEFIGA

Row | SMILES | pIC50 [1] | pIC50 (HepG2) | pIC50 [2] | pIC50 [3] | pIC50 (MCF7 [4]) | pIC50 (A549) | pIC50 [5] | pIC50 (HeLa) | CC50 at 48 h [6] | Activity (MCF7 [7])
1 | COc1cccc(-n2cc(NC(=O)c3cccc(NS(=O)(=O)c4ccccc4)c3)cn2)c1 | 4.48 | 4.60 | 5.04 | 4.64 | 4.78 | 4.09 | 4.56 | 4.58 |  | 
2 | O=C(Nc1cnn(-c2ccccc2)c1)c1ccc(NS(=O)(=O)c2ccc(Cl)cc2)cc1 | 4.67 | 4.82 | 5.43 |  | 5.28 | 4.47 | 4.71 | 4.73 | 125 µM | 
3 | COc1ccc(-n2cc(NC(=O)c3ccc(NS(=O)(=O)c4ccccc4)cc3)cn2)cc1 | 4.34 | 4.24 | 4.84 | 4.58 | 4.59 | 4.07 | 4.43 | 4.33 |  | 
4 | COc1cccc(-n2cc(NC(=O)c3ccc(NS(=O)(=O)c4ccccc4)cc3)cn2)c1 | 4.32 | 4.19 | 4.79 | 4.62 | 4.55 | < 4.00 | 4.40 | 4.18 |  | 
5 | Cn1cc(NC(=O)c2cccc(NS(=O)(=O)c3ccccc3)c2)cn1 | 4.24 | 4.07 | 4.69 | 4.46 | 4.39 | < 4.00 | 4.38 | 4.11 |  | 
6 | COc1cc2/c(=N/c3ccc(Br)cc3F)nc[nH]c2cc1OCC1CCN(C)CC1 [VANDETANIB] |  | 5.61 |  |  | 5.85 | 4.74 | 5.88 | 5.18 |  | Dose-dependent effect
7 | Cn1cc(NC(=O)c2cccc(NS(=O)(=O)c3ccc(Cl)cc3)c2)cn1 | 4.23 | 4.08 | 4.76 |  | 4.49 | < 4.00 | 4.40 | 4.20 |  | 
8 | COc1ccc(-n2cc(NC(=O)c3cccc(NS(=O)(=O)c4ccc(Cl)cc4)c3)cn2)cc1 | 4.59 | 4.82 | 5.29 | 4.81 | 5.06 | 4.53 | 4.66 | 4.70 | 89.8 µM | 
9 | O=C(Nc1cnn(-c2ccccc2)c1)c1ccc(NS(=O)(=O)c2ccccc2)cc1 | 4.45 | 4.67 | 4.99 | 4.59 | 4.77 | 4.06 | 4.46 | 4.43 |  | 
10 | Cc1ccc(-n2cc(NC(=O)c3ccc(NS(=O)(=O)c4ccccc4)cc3)cn2)cc1 | 4.55 | 4.74 | 5.16 | 4.74 | 4.96 | 4.26 | 4.59 | 4.55 | 107 µM | 
